Source: the NIST ThermoML archive (doi:10.1016/j.jct.2007.10.010)

What was measured:
[1] = 101 kPa, Liquid
[2] = refractive index (Na D-line) (dimensionless); conditions: 298.15 K; 101.33 kPa; Liquid; Standard Abbe refractometry
[3] = xn = mol fraction of the nth substance listed; conditions: 101 kPa, Liquid

Cc1cc(C)cc(C)c1 [1,3,5-trimethylbenzene]
[1]
Conditions | mass density [kg/m3]
298.15 K | 861.13
308.15 K | 852.89
318.15 K | 844.78
328.15 K | 836.65

Conditions | refractive index
[2] | 1.4967

Cc1cc(C)cc(C)c1 [1,3,5-trimethylbenzene] + CCCCCCCC
[3]
Conditions | mass density [kg/m3]
298.15 K, x2 = 0 | 861.13
298.15 K, x2 = 0.08503 | 845.14
298.15 K, x2 = 0.1479 | 833.6
298.15 K, x2 = 0.2132 | 821.88
298.15 K, x2 = 0.2717 | 811.56
298.15 K, x2 = 0.3177 | 803.61
298.15 K, x2 = 0.3864 | 791.95
298.15 K, x2 = 0.463 | 779.23
298.15 K, x2 = 0.5407 | 766.69
298.15 K, x2 = 0.6037 | 756.73
298.15 K, x2 = 0.6725 | 746.08
298.15 K, x2 = 0.723 | 738.44
298.15 K, x2 = 0.7969 | 727.45
298.15 K, x2 = 0.8623 | 717.95
298.15 K, x2 = 0.9422 | 706.63
308.15 K, x2 = 0 | 852.89
308.15 K, x2 = 0.08503 | 836.88
308.15 K, x2 = 0.1386 | 827.02
308.15 K, x2 = 0.2132 | 813.6
308.15 K, x2 = 0.2717 | 803.29
308.15 K, x2 = 0.3177 | 795.34
308.15 K, x2 = 0.3864 | 783.69
308.15 K, x2 = 0.463 | 770.99
308.15 K, x2 = 0.5407 | 758.45
308.15 K, x2 = 0.6037 | 748.49
308.15 K, x2 = 0.6725 | 737.87
308.15 K, x2 = 0.723 | 730.2
308.15 K, x2 = 0.7969 | 719.24
308.15 K, x2 = 0.8623 | 709.74
308.15 K, x2 = 0.9422 | 698.43
318.15 K, x2 = 0 | 844.78
318.15 K, x2 = 0.06984 | 831.58
318.15 K, x2 = 0.1363 | 819.34
318.15 K, x2 = 0.2001 | 807.84
318.15 K, x2 = 0.2695 | 795.59
318.15 K, x2 = 0.3464 | 782.35
318.15 K, x2 = 0.398 | 773.67
318.15 K, x2 = 0.4464 | 765.65
318.15 K, x2 = 0.536 | 751.14
318.15 K, x2 = 0.5995 | 741.12
318.15 K, x2 = 0.6643 | 731.1
318.15 K, x2 = 0.7301 | 721.16
318.15 K, x2 = 0.7839 | 713.18
318.15 K, x2 = 0.8537 | 703.03
318.15 K, x2 = 0.9507 | 689.3
328.15 K, x2 = 0 | 836.65
328.15 K, x2 = 0.06984 | 823.48
328.15 K, x2 = 0.1363 | 811.25
328.15 K, x2 = 0.2001 | 799.75
328.15 K, x2 = 0.2677 | 787.84
328.15 K, x2 = 0.3464 | 774.3
328.15 K, x2 = 0.398 | 765.62
328.15 K, x2 = 0.4622 | 755.02
328.15 K, x2 = 0.5368 | 743
328.15 K, x2 = 0.6022 | 732.7
328.15 K, x2 = 0.6552 | 724.51
328.15 K, x2 = 0.7389 | 711.86
328.15 K, x2 = 0.7839 | 705.21
328.15 K, x2 = 0.8537 | 695.07
328.15 K, x2 = 0.9507 | 681.35

Cc1cccc(C)c1 [1,3-dimethylbenzene]
[1]
Conditions | mass density [kg/m3]
298.15 K | 859.85
308.15 K | 851.2
318.15 K | 842.66
328.15 K | 834.13

Conditions | refractive index
[2] | 1.4945

Cc1cccc(C)c1 [1,3-dimethylbenzene] + CCCCCCCC
[3]
Conditions | mass density [kg/m3]
298.15 K, x2 = 0 | 859.85
298.15 K, x2 = 0.06642 | 845.86
298.15 K, x2 = 0.1397 | 831.1
298.15 K, x2 = 0.2052 | 818.49
298.15 K, x2 = 0.276 | 805.42
298.15 K, x2 = 0.323 | 797.05
298.15 K, x2 = 0.3982 | 784.13
298.15 K, x2 = 0.4618 | 773.65
298.15 K, x2 = 0.5432 | 760.8
298.15 K, x2 = 0.5993 | 752.28
298.15 K, x2 = 0.6755 | 741.14
298.15 K, x2 = 0.7284 | 733.68
298.15 K, x2 = 0.7851 | 725.91
298.15 K, x2 = 0.8583 | 716.27
298.15 K, x2 = 0.925 | 707.79
308.15 K, x2 = 0 | 851.2
308.15 K, x2 = 0.06642 | 837.23
308.15 K, x2 = 0.1397 | 822.5
308.15 K, x2 = 0.2052 | 809.92
308.15 K, x2 = 0.276 | 796.89
308.15 K, x2 = 0.323 | 788.53
308.15 K, x2 = 0.3954 | 776.12
308.15 K, x2 = 0.4618 | 765.21
308.15 K, x2 = 0.5432 | 752.4
308.15 K, x2 = 0.5993 | 743.9
308.15 K, x2 = 0.6755 | 732.79
308.15 K, x2 = 0.7284 | 725.36
308.15 K, x2 = 0.7851 | 717.64
308.15 K, x2 = 0.8583 | 708.01
308.15 K, x2 = 0.925 | 699.57
318.15 K, x2 = 0 | 842.66
318.15 K, x2 = 0.0687 | 828.23
318.15 K, x2 = 0.1168 | 818.54
318.15 K, x2 = 0.207 | 801.13
318.15 K, x2 = 0.2651 | 790.45
318.15 K, x2 = 0.3289 | 779.13
318.15 K, x2 = 0.4087 | 765.6
318.15 K, x2 = 0.4672 | 756.08
318.15 K, x2 = 0.5321 | 745.88
318.15 K, x2 = 0.6067 | 734.61
318.15 K, x2 = 0.6634 | 726.39
318.15 K, x2 = 0.7288 | 717.2
318.15 K, x2 = 0.7923 | 708.59
318.15 K, x2 = 0.8634 | 699.33
318.15 K, x2 = 0.9502 | 688.48
328.15 K, x2 = 0 | 834.13
328.15 K, x2 = 0.0687 | 819.75
328.15 K, x2 = 0.1168 | 810.1
328.15 K, x2 = 0.207 | 792.73
328.15 K, x2 = 0.2651 | 782.09
328.15 K, x2 = 0.3289 | 770.81
328.15 K, x2 = 0.4087 | 757.32
328.15 K, x2 = 0.4672 | 747.81
328.15 K, x2 = 0.5287 | 738.2
328.15 K, x2 = 0.6067 | 726.45
328.15 K, x2 = 0.6634 | 718.26
328.15 K, x2 = 0.7288 | 709.11
328.15 K, x2 = 0.7923 | 700.55
328.15 K, x2 = 0.8634 | 691.33
328.15 K, x2 = 0.9502 | 680.52

c1ccccc1 [benzene]
[1]
Conditions | mass density [kg/m3]
298.15 K | 873.62
308.15 K | 863.01
318.15 K | 852.16
328.15 K | 841.49

Conditions | refractive index
[2] | 1.4979

c1ccccc1 [benzene] + CCCCCCCC
[3], x2 = 0
Conditions | mass density [kg/m3]
298.15 K | 873.62
308.15 K | 863.01
318.15 K | 852.16
328.15 K | 841.49
